Laboratory results: patent US9669031B2, “MNK inhibitors and methods related thereto” (eFFECTOR Therapeutics, Inc., priority 2014, dated 2017)
Read-outs that look alike come from different tables or passages of the source.

Experiments:
[1] = Balb/c, mouse, in vivo, po, 10 mg/kg
in vivo = details: Balb/c, mouse, po, 10 mg/kg; for AUC(0-t): AUClast; for half-life: T½
[2] = Pharmacokinetics in Balb/c mice, single intravenous bolus administration; format: in vivo; details: intravenous bolus 1 mg/kg, gender F; for AUC(0-inf) / half-life / Vd: female, mouse, plasma; for AUC(0-inf): read-out: AUCINF_obs; for half-life: read-out: T½ (converted); for Vd: read-out: Vss
[3] = formulation 10DMI/15EtOH/35PG/40Saline
[4] = formulation 10DMI/15EtOH/35PG/40D5W

Tlast ([1]; female) | AUC(0-t) (in vivo; female) | Cmax (in vivo; female) | Tmax (in vivo; female) | half-life (in vivo; female) | Structure (SMILES) | also measured
8 h | 0.132 µg·h/mL | 0.0218 µg/mL | 2 h | 6.75 h | CC1(C)NC(=O)c2c(Cl)cc(Nc3cc(NC(=O)C4CC4)ncn3)c(=O)n21 [Cpd. No. 43, N-[6-[(8-chloro-3,3-dimethyl-1,5-dioxo-2H-imidazo[1,5-a]pyridin-6-yl)amino]pyrimidin-4-yl]cyclopropanecarboxamide] | –
8 h | 0.0429 µg·h/mL | 0.00916 µg/mL | 2 h | 7.55 h | O=C1NC2(CCCCC2)n2c1c(Cl)cc(Nc1cc(NC(=O)C3CC3)ncn1)c2=O [Cpd. No. 45, N-(6-((8′-chloro-1′,5′-dioxo-1′,5′-dihydro-2′H-spiro[cyclohexane-1,3′-imidazo[1,5-a]pyridin]-6′-yl)amino)pyrimidin-4-yl)cyclopropanecarboxamide] | –
24 h | – | – | 4 h | – | O=C1NC2(CCC(F)(F)CC2)n2c1c(Cl)cc(Nc1cc(NC(=O)C3CC3)ncn1)c2=O [Cpd. No. 50, N-[6-[(8-chloro-4′,4′-difluoro-1,5-dioxo-spiro[2H-imidazo[1,5-a]pyridine-3,1′-cyclohexane]-6-yl)amino]pyrimidin-4-yl]cyclopropanecarboxamide] | AUC(0-inf) [2, 3]: 0.887 µg·h/mL; half-life [2, 3]: 2.47 h; Vd [2, 3]: 3.18 L/kg; Cl_obs [2, 3]: 1.13 L/h/kg
24 h | 31.3 µg·h/mL | 3.16 µg/mL | – | 7.38 h | CC1(c2cccc(Cl)c2)NC(=O)c2c(Cl)cc(Nc3cc(NC(=O)C4CC4)ncn3)c(=O)n21 (stereo not drawn) [Cpd. No. 51, N-[6-[[8-chloro-3-(3-chlorophenyl)-3-methyl-1,5-dioxo-2H-imidazo[1,5-a]pyridin-6-yl]amino]pyrimidin-4-yl]cyclopropanecarboxamide] | AUC(0-inf) [2, 3]: 2.5 µg·h/mL; half-life [2, 3]: 5.78 h; Vd [2, 3]: 2.79 L/kg; Cl_obs [2, 3]: 0.4 L/h/kg; AUClast ([1]; female): 35.8 µg·h/mL; T½ ([1]; female): 8.36 h
24 h | 38.1 µg·h/mL | 3.37 µg/mL | – | 5.41 h | CC1(c2cccc(F)c2)NC(=O)c2c(Cl)cc(Nc3cc(NC(=O)C4CC4)ncn3)c(=O)n21 (stereo not drawn) [Cpd. No. 52, N-[6-[[8-chloro-3-(3-fluorophenyl)-3-methyl-1,5-dioxo-2H-imidazo[1,5-a]pyridin-6-yl]amino]pyrimidin-4-yl]cyclopropanecarboxamide] | AUClast ([1]; female): 22.3 µg·h/mL; T½ ([1]; female): 3.56 h
24 h | 56.9 µg·h/mL | 6.17 µg/mL | 1 h | 2.61 h | CC1(CC(F)(F)F)NC(=O)c2c(Cl)cc(Nc3ccncn3)c(=O)n21 (stereo not drawn) [Cpd. No. 55, 8-chloro-3-methyl-6-(pyrimidin-4-ylamino)-3-(2,2,2-trifluoroethyl)-2H-imidazo[1,5-a]pyridine-1,5-dione] | –
24 h | 5.43 µg·h/mL | 0.69 µg/mL | 2 h | 5.32 h | CC1(c2cccc(Cl)c2)NC(=O)c2c(Cl)cc(Nc3ccncn3)c(=O)n21 (stereo not drawn) [Cpd. No. 58, 8-chloro-3-(3-chlorophenyl)-3-methyl-6-(pyrimidin-4-ylamino)-2H-imidazo[1,5-a]pyridine-1,5-dione] | –
8 h | 1.47 µg·h/mL | 0.983 µg/mL | 0.25 h | 2 h | Nc1cc(Nc2cc(Cl)c3n(c2=O)C2(CCCCC2)NC3=O)ncn1 [Cpd. No. 70, 6′-((6-aminopyrimidin-4-yl)amino)-8′-chloro-2′H-spiro[cyclohexane-1,3′-imidazo[1,5-a]pyridine]-1′,5′-dione] | AUC(0-inf) [2, 4]: 0.333 µg·h/mL; half-life [2, 4]: 0.561 h; Vd [2, 4]: 1.8 L/kg; Cl_obs [2, 4]: 3.01 L/h/kg; AUClast ([1]; female): 2.01 µg·h/mL; T½ ([1]; female): 3.74 h
– | – | 0.63 µg/mL | 0.3 h | 2.5 h | Cl.O=C1NC2(CCCCC2)n2c1c(Cl)cc(Nc1ccncn1)c2=O [Cpd. No. 109, 8-chloro-6-(pyrimidin-4-ylamino)spiro[2H-imidazo[1,5-a]pyridine-3,1′-cyclohexane]-1,5-dione hydrochloride] | –
– | – | 1.7 µg/mL | 0.3 h | 2.6 h | Cl.O=C1NC2(CCC(F)(F)CC2)n2c1c(Cl)cc(Nc1ccncn1)c2=O [Cpd. No. 110, 8-chloro-4′,4′-difluoro-6-(pyrimidin-4-ylamino)spiro[2H-imidazo[1,5-a]pyridine-3,1′-cyclohexane]-1,5-dione hydrochloride] | –

The next lines start with the compound.

Structure (SMILES) | Tlast ([1]; female) | AUC(0-t) (in vivo; female) | Cmax (in vivo; female) | Tmax (in vivo; female) | half-life (in vivo; female) | also measured
CC1(C2CCCC2)NC(=O)c2ccc(Nc3ccncn3)c(=O)n21 (stereo not drawn) [Cpd. No. 9, 3-cyclopentyl-3-methyl-6-(pyrimidin-4-ylamino)-2,3-dihydroimidazo[1,5-a]pyridine-1,5-dione] | – | – | – | – | – | Tlast ([1]; male): 8 h; AUC(0-t) (in vivo; male): 4.83 µg·h/mL; Cmax (in vivo; male): 5.05 µg/mL; Tmax (in vivo; male): 0.5 h; half-life (in vivo; male): 0.831 h
CC1(C)NC(=O)c2ccc(Nc3cc(NC(=O)C4CC4)ncn3)c(=O)n21 [Cpd. No. 10, N-(6-((3,3-dimethyl-1,5-dioxo-1,2,3,5-tetrahydroimidazo[1,5-a]pyridin-6-yl)amino)pyrimidin-4-yl)cyclopropanecarboxamide] | 8 h | 6.42 µg·h/mL | 1.72 µg/mL | 0.5 h | 1.87 h | AUC(0-inf) [2, 3]: 0.396 µg·h/mL; half-life [2, 3]: 2.8 h; Vd [2, 3]: 5.45 L/kg; Cl_obs [2, 3]: 2.53 L/h/kg; Tlast ([1]; male): 24 h; AUC(0-t) (in vivo; male): 8.75 µg·h/mL; Cmax (in vivo; male): 2.16 µg/mL; Tmax (in vivo; male): 1 h; half-life (in vivo; male): 4.22 h
CC1(C(F)(F)F)NC(=O)c2ccc(Nc3ccncn3)c(=O)n21 (stereo not drawn) [Cpd. No. 14, 3-methyl-6-(pyrimidin-4-ylamino)-3-(trifluoromethyl)-2,3-dihydroimidazo[1,5-a]pyridine-1,5-dione] | – | – | – | – | – | Tlast ([1]; male): 8 h; AUC(0-t) (in vivo; male): 0.255 µg·h/mL; Cmax (in vivo; male): 0.405 µg/mL; Tmax (in vivo; male): 0.5 h
O=C1NC2(CCCNC2)n2c1ccc(Nc1ccncn1)c2=O (stereo not drawn) [Cpd. No. 20, 6-(pyrimidin-4-ylamino)-1H-spiro[imidazo[1,5-a]pyridine-3,3′-piperidine]-1,5(2H)-dione] | 4 h | 2.09 µg·h/mL | 2.24 µg/mL | 0.5 h | 0.643 h | –
O=C1NC2(CCCC2)n2c1ccc(Nc1cc(NC(=O)C3CC3)ncn1)c2=O [Cpd. No. 21, N-[6-[(1,5-dioxospiro[2H-imidazo[1,5-a]pyridine-3,1′-cyclopentane]-6-yl)amino]pyrimidin-4-yl]cyclopropanecarboxamide] | 4 h | 0.109 µg·h/mL | 0.0502 µg/mL | 0.5 h | 2.66 h | –
CC1(CC(F)(F)F)NC(=O)c2ccc(Nc3cc(NC(=O)C4CC4)ncn3)c(=O)n21 (stereo not drawn) [Cpd. No. 22, N-(6-((3-methyl-1,5-dioxo-3-(2,2,2-trifluoroethyl)-1,2,3,5-tetrahydroimidazo[1,5-a]pyridin-6-yl)amino)pyrimidin-4-yl)cyclopropanecarboxamide] | 8 h | 1.62 µg·h/mL | 0.371 µg/mL | 2 h | 1.93 h | –
CC1(C2CCCC2)NC(=O)c2ccc(Nc3cc(NC(=O)C4CC4)ncn3)c(=O)n21 (stereo not drawn) [Cpd. No. 23, N-[6-[(3-cyclopentyl-3-methyl-1,5-dioxo-2H-imidazo[1,5-a]pyridin-6-yl)amino]pyrimidin-4-yl]cyclopropanecarboxamide] | 8 h | 0.0757 µg·h/mL | 0.0175 µg/mL | 1 h | 3.49 h | –
CC1(C(F)(F)F)NC(=O)c2ccc(Nc3cc(NC(=O)C4CC4)ncn3)c(=O)n21 (stereo not drawn) [Cpd. No. 24, N-[6-[[3-methyl-1,5-dioxo-3-(trifluoromethyl)-2H-imidazo[1,5-a]pyridin-6-yl]amino]pyrimidin-4-yl]cyclopropanecarboxamide] | 8 h | 0.921 µg·h/mL | 0.192 µg/mL | 2 h | 1.91 h | –
CC1(C(F)(F)F)NC(=O)c2c(Cl)cc(Nc3ccncn3)c(=O)n21 (stereo not drawn) [Cpd. No. 35, 8-chloro-3-methyl-6-(pyrimidin-4-ylamino)-3-(trifluoromethyl)-2H-imidazo[1,5-a]pyridine-1,5-dione] | 24 h | 71.3 µg·h/mL | 6.93 µg/mL | 2 h | 3.46 h | –
Cl.O=C1NC2(CCCNC2)n2c1c(Cl)cc(Nc1ccncn1)c2=O (stereo not drawn) [Cpd. No. 54, 8-chloro-6-(pyrimidin-4-ylamino)spiro[2H-imidazo[1,5-a]pyridine-3,3′-piperidine]-1,5-dione hydrochloride] | – | – | 1.05 µg/mL | 0.5 h | – | –
